MIC, inhibition and IC50 data for two molecules are collected here from ChEMBL document CHEMBL1781888, “Marianins A and B, prenylated phenylpropanoids from Mariannaea camptospora” (J Nat Prod, 2011).

Converted amounts (≈) assume the structure as drawn. The source made the active and inactive calls. Some results are limits rather than exact numbers.

For one experiment, the system named is Micrococcus luteus. As to the kind of experiment: Antibacterial activity against Micrococcus luteus ATCC 9343. The experiment is classed as functional.
The next experiment relates to Escherichia coli. The experiment is described as follows: Antibacterial activity against Escherichia coli NIH-JC2 at 30 microg/mL. The experiment is classed as functional, organism-based.
In the next experiment the test system is Candida albicans. As to the kind of experiment: Antifungal activity against Candida albicans IFO1594 at 30 microg/mL. The experiment is classed as functional, organism-based.
For the next experiment, the system named is HeLa. As to the kind of experiment: Cytotoxicity against human HeLa cells after 48 hrs by MTT assay. The experiment is classed as functional, cell-based.
Another experiment concerns MCF7. As to the kind of experiment: Cytotoxicity against human MCF7 cells after 48 hrs by MTT assay. The experiment is classed as functional, cell-based. The note with it: MCF7, 48 h. Background: Formazan colour is commonly taken as a measure of viable cells.

As for `CC(C)=CCOc1cc(C)c2c(OCC=C(C)C)cc(=O)oc2c1` [MARIANIN A], the minimal inhibitory concentration (MIC) in the experiment with Micrococcus luteus was determined as 15 µg/mL (≈ 45.7 µM). Further, the inhibition result in the experiment on Escherichia coli and in the experiment with Candida albicans was “inactive” in each case. Besides, the IC50 in the experiment on HeLa stood at 34 µM; in the experiment on MCF7, 39 µM.

Consider `C=CC(C)(C)CC(=O)c1c(C)cc(OCC=C(C)C)cc1O` [MARIANIN B], for which, in the experiment with Micrococcus luteus, the MIC was determined as 30 µg/mL (≈ 99.2 µM). Moreover, the inhibition entry in the experiment with Escherichia coli and in the experiment with Candida albicans was “inactive” each time. Moreover, the IC50 with HeLa and in the experiment on MCF7 was > 100 µM in each case.

Usually MIC stands for the smallest concentration in the dilution series that meets the test's criterion for growth inhibition. By IC50 is commonly meant the midpoint of a concentration-inhibition curve. Read a low IC50 as greater potency in that assay.
